Drawing on PubChem BioAssay (NCI), this text covers GI50 and TGI for ten compounds.

“And” between values parts separate entries of the source, which are not always exact repeats. Equal values may be shown once.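 Test compounds were applied to cells in 96-well plates for 48 hours at 5 doses. Abbreviation: GI50, concentration required for 50% inhibition of growth. The concentration for full growth arrest is given as TGI.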

Test systems include A498 renal; HCC-2998 colon; PC-3 prostate; K-562 leukemia; U251 CNS; OVCAR-5 ovarian; UACC-257 melanoma; NCI/ADR-RES ovarian; SW-620 colon; HT29 colon.
What all share (assay): growth of human tumour cells (NCI), 48 h

Take `O=C(CSc1nc2ccc([N+](=O)[O-])cc2[nH]1)Nc1ccc([N+](=O)[O-])cc1`: the GI50 in the test with A498 renal was 1.34 µM; with HCC-2998 colon, 3 µM; in the test on PC-3 prostate, 2.38 µM; with K-562 leukemia, 2.49 µM; in the test with U251 CNS, 2.62 µM; in the test on OVCAR-5 ovarian, 2.78 µM. Further, the GI50 in the test on UACC-257 melanoma was 1.75 µM; with NCI/ADR-RES ovarian it was 2.46 µM; in the test on SW-620 colon it was 3.24 µM; in the test on HT29 colon, 2.82 µM. The TGI in the test with A498 renal was 3.8 µM; in the test with HCC-2998 colon, 15.3 µM; in the test with PC-3 prostate, 12.5 µM; in the test with K-562 leukemia it was > 100 µM; with U251 CNS, 15.5 µM; in the test on OVCAR-5 ovarian it was 12.9 µM. The TGI with UACC-257 melanoma came out at 6.71 µM; in the test with NCI/ADR-RES ovarian, 8.19 µM; in the test on SW-620 colon, 17.6 µM; with HT29 colon it was 10.6 µM.
Turning to `O=C(NCCCNc1cc(-c2cn(-c3ccccc3)nc2-c2cccc(O)c2)ccn1)c1ccc(F)cc1`, the GI50 was 1.83 µM with HCC-2998 colon; 2.81 µM in the test on PC-3 prostate; 1.93 µM in the test with K-562 leukemia; 2.96 µM with U251 CNS; 2.62 µM in the test with OVCAR-5 ovarian; 1.8 µM with UACC-257 melanoma. The values for the GI50 with NCI/ADR-RES ovarian, in the test with SW-620 colon and in the test on HT29 colon were 2.2 µM, 2.95 µM and 1.7 µM, respectively. Besides, the TGI in the test on HCC-2998 colon was 3.4 µM; in the test on PC-3 prostate, 15.7 µM; in the test on K-562 leukemia, > 100 µM; with U251 CNS, 10.9 µM; with OVCAR-5 ovarian it was 28.6 µM; in the test on UACC-257 melanoma it was 3.87 µM. Besides, the TGI in the test with NCI/ADR-RES ovarian came to 5.75 µM; in the test on SW-620 colon, 9.55 µM; in the test on HT29 colon, 5.43 µM.
Consider `ClCCN(CCCl)c1ccc(OCc2ccccc2)cc1`, for which the GI50 in the test on A498 renal is 3.54 µM; in the test with PC-3 prostate, 5.28 µM; with K-562 leukemia it was 7.02 µM; with U251 CNS it was 2.1 µM; in the test with OVCAR-5 ovarian, 29 µM; with UACC-257 melanoma, 6.3 µM. The GI50 was 5.44 µM with NCI/ADR-RES ovarian, 6.46 µM in the test with SW-620 colon and 13.4 µM with HT29 colon. The TGI in the test on A498 renal was 19.5 µM; with PC-3 prostate it was > 100 µM; in the test on K-562 leukemia, > 100 µM; with U251 CNS it was 18.2 µM; with OVCAR-5 ovarian it was > 100 µM; in the test on UACC-257 melanoma, 39.6 µM. In addition, the TGI in the test with NCI/ADR-RES ovarian was > 100 µM; in the test with SW-620 colon, 65.8 µM; in the test with HT29 colon, 49.8 µM.
On to `Nc1cc2c(c3ccccc13)C(CCl)CN2C(=O)c1cc2cc(NC(=O)c3cc4ccccc4o3)ccc2[nH]1` (centres undefined), for which the TGI was 0.675 µM with HCC-2998 colon; 138 µM with OVCAR-5 ovarian; 0.0078 µM and < 0.11 µM in the test with NCI/ADR-RES ovarian. Moreover, the GI50 with OVCAR-5 ovarian and in the test with NCI/ADR-RES ovarian was > 0.11 µM in each case.
In the case of `COc1ccc(C(=O)O[C@@H]2CCN3CC[C@H](C)[C@H]23)cc1`, the TGI in the test on A498 renal, with PC-3 prostate, with U251 CNS, with OVCAR-5 ovarian, with UACC-257 melanoma and in the test with NCI/ADR-RES ovarian was > 100 µM in each case. The TGI in the test with SW-620 colon and in the test on HT29 colon was > 100 µM in each case.
For `CC12OC(C(=O)C13CC3)C1C(=O)c3cccc(O)c3C(=O)C12` (centres undefined), the GI50 is 16.3 µM in the test with A498 renal; 18.5 µM in the test with HCC-2998 colon; 10.3 µM in the test on PC-3 prostate; 8.29 µM in the test on U251 CNS; 24.5 µM in the test on OVCAR-5 ovarian; 19.6 µM in the test on UACC-257 melanoma. The GI50 in the test on NCI/ADR-RES ovarian is 6.9 µM; with SW-620 colon, 4.41 µM; in the test on HT29 colon, 10.6 µM. The TGI in the test on A498 renal is 30.4 µM; in the test on HCC-2998 colon, 46.7 µM; with PC-3 prostate, 34.3 µM; in the test on U251 CNS it was > 58.8 µM; in the test with OVCAR-5 ovarian, > 66.3 µM; in the test with UACC-257 melanoma, 50.8 µM. The TGI was 25.3 µM with NCI/ADR-RES ovarian, > 100 µM in the test with SW-620 colon and > 100 µM in the test with HT29 colon.
In the case of `CC[C@@]1(O)C(=O)OCc2c1cc1n(c2=O)Cc2cc3c(OC)cccc3nc2-1`, the GI50 in the test with A498 renal is 0.00301 µM; in the test with U251 CNS, 0.00858 µM; in the test on OVCAR-5 ovarian it was 0.0386 µM; with UACC-257 melanoma it was 0.0646 µM; in the test on SW-620 colon it was 0.0405 µM. Besides, the TGI is > 100 µM with PC-3 prostate; 17.8 µM with K-562 leukemia; 7.13 µM with OVCAR-5 ovarian; 4.25 µM in the test with UACC-257 melanoma; > 100 µM in the test on NCI/ADR-RES ovarian; 5.65 µM in the test with SW-620 colon. In addition, the TGI with HT29 colon is > 43.7 µM.
`C#CCOCCCC(=O)O`: the TGI with A498 renal, in the test with PC-3 prostate, in the test with K-562 leukemia, with U251 CNS, with OVCAR-5 ovarian and in the test with UACC-257 melanoma was > 100 µM in each case. The TGI with NCI/ADR-RES ovarian, in the test on SW-620 colon and with HT29 colon was > 100 µM each time.
In the case of `Cc1ccc([I+]c2ccc(C)cc2)cc1`, the GI50 in the test on A498 renal was 2.28 µM; with HCC-2998 colon, 6.44 µM; in the test with PC-3 prostate it was 6.73 µM; with U251 CNS, 4.1 µM; in the test on OVCAR-5 ovarian it was 39.2 µM; in the test on UACC-257 melanoma, 2.71 µM. Moreover, the GI50 in the test with NCI/ADR-RES ovarian is > 100 µM; in the test on SW-620 colon it was 3.94 µM; with HT29 colon, 0.887 µM. Further, the TGI was > 100 µM in the test on A498 renal; > 100 µM in the test on HCC-2998 colon; > 100 µM in the test on PC-3 prostate; > 100 µM in the test on U251 CNS; > 100 µM in the test on OVCAR-5 ovarian; 57.4 µM with UACC-257 melanoma. The TGI is > 100 µM with NCI/ADR-RES ovarian, > 100 µM in the test with SW-620 colon and 27.4 µM in the test on HT29 colon.
Consider `CO[C@@H]1[C@H](N(C)C(=O)c2ccccc2)C[C@@H]2O[C@]1(C)n1c3ccccc3c3c4c(c5c6ccccc6n2c5c31)C(=O)NC4=O`, for which the GI50 with A498 renal was 0.206 µM; in the test on HCC-2998 colon, > 100 µM; with PC-3 prostate, 0.562 µM; in the test on K-562 leukemia it was 11.1 µM; with U251 CNS it was 3.6 µM; in the test on UACC-257 melanoma, > 100 µM. The GI50 is 5.75 µM with NCI/ADR-RES ovarian, 0.732 µM with SW-620 colon and 0.745 µM in the test on HT29 colon. In addition, the TGI in the test with A498 renal is 0.661 µM; in the test with HCC-2998 colon it was > 100 µM; in the test on PC-3 prostate it was > 100 µM; in the test with K-562 leukemia, > 100 µM; in the test with U251 CNS it was > 100 µM; with UACC-257 melanoma, > 100 µM. The TGI with NCI/ADR-RES ovarian, in the test on SW-620 colon and in the test with HT29 colon was > 100 µM in each case.
